Data from ChEMBL document CHEMBL5223155, “Design, synthesis, and evaluation of pyrido.[3,4-b]pyrazin-2(1H)-one derivatives as potent FLT3 inhibitors” (Bioorg Med Chem, 2023).

Experiments:
MV4-11 = test: cells; conditions: Homo sapiens, MV4-11, 72 h
Description: Antiproliferative activity against human MV4-11 cells assessed as inhibition of cell growth incubated for 72 hrs by MTS assay

MOLM-13 = test: Antiproliferative activity against human MOLM-13 cells assessed as inhibition of cell growth incubated for 72 hrs by MTS assay; assay type: functional, cell-based; conditions: MOLM-13, 72 h
[1] = molecular target: T1, Receptor-type tyrosine-protein kinase FLT3 (Homo sapiens, UniProt P36888)
T1 sequence (P36888 whole entry): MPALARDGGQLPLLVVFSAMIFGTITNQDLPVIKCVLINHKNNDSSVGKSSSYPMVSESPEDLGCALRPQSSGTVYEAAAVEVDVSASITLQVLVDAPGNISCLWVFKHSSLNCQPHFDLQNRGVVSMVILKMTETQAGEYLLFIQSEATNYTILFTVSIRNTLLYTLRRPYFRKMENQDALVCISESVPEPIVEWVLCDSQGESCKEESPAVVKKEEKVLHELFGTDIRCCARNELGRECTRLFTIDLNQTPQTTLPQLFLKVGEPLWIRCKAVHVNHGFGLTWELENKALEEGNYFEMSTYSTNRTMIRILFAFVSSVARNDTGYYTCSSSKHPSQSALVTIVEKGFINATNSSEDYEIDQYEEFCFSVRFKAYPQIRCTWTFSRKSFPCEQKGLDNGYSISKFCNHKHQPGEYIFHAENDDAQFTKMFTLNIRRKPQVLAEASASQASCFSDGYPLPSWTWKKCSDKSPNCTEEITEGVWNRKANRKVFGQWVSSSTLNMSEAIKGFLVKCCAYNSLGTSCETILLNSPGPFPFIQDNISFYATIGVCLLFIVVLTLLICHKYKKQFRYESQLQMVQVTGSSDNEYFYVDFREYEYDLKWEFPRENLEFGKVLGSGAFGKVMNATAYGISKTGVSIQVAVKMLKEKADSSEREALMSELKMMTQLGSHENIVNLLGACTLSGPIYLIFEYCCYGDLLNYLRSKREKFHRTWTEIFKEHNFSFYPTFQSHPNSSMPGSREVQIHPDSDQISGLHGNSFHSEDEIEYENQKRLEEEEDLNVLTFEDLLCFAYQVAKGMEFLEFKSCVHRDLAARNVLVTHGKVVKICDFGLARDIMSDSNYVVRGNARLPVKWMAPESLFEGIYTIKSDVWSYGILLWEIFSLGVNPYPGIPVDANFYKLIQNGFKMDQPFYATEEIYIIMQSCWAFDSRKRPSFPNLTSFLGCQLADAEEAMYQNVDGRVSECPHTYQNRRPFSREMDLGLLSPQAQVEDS
Description: Inhibition of human wild type FLT3 using TK peptide as substrate incubated for 1 hr in presence of ATP by HTRF assay

[2] = molecular target: Receptor-type tyrosine-protein kinase FLT3 (Homo sapiens, UniProt P36888, D835Y)
Description: Inhibition of human FLT3 D835Y mutant using TK peptide as substrate incubated for 1 hr in presence of ATP by HTRF assay

BaF3 [3] = test: cells; conditions: Mus musculus, BaF3, 72 h
Description: Antiproliferative activity against mouse BaF3 cells harboring FLT3-F691L mutant assessed as inhibition of cell growth incubated for 72 hrs by MTS assay

BaF3 [4] = test: cells; conditions: Mus musculus, BaF3, 72 h; remark: listed apart in the source
Description: Antiproliferative activity against mouse BaF3 cells harboring FLT3-D835F mutant assessed as inhibition of cell growth incubated for 72 hrs by MTS assay

BaF3 [5] = test: cells; conditions: Mus musculus, BaF3, 72 h; remark: listed apart in the source
Description: Antiproliferative activity against mouse BaF3 cells harboring FLT3-ITD/D835Y mutant assessed as inhibition of cell growth incubated for 72 hrs by MTS assay

BaF3 [6] = test: cells; conditions: Mus musculus, BaF3, 72 h; remark: listed apart in the source
Description: Antiproliferative activity against mouse BaF3 cells harboring FLT3-ITD mutant assessed as inhibition of cell growth incubated for 72 hrs by MTS assay

BaF3 [7] = test: cells; conditions: Mus musculus, BaF3, 72 h; remark: listed apart in the source
Description: Antiproliferative activity against mouse BaF3 cells harboring FLT3-D835V mutant assessed as inhibition of cell growth incubated for 72 hrs by MTS assay

Row | Structure (SMILES) | IC50 [1] [nM] | IC50 [2] [nM] | IC50 (MV4-11) [nM] | IC50 (MOLM-13) [nM] | also measured
1 | Cc1cc(Nc2cc3c(cn2)ncc(=O)n3-c2ccc(N)cc2)ncc1N1CCN(C)CC1 | 50 | 41 | 30 | 254 | 
2 | Cc1cc(Nc2cc3c(cn2)ncc(=O)n3-c2ccc(N)cc2)ncc1N1CCN(C2CC2)CC1 | 103 | 38 | 36 | 366 | 
3 | Cc1cc(Nc2cc3c(cn2)ncc(=O)n3-c2ccc(N)cc2)ncc1N1CCNCC1 | 102 | 34 | 26 | 436 | IC50 (BaF3 [3]): 863 nM; IC50 (BaF3 [4]): 3100 nM; IC50 (BaF3 [5]): 633 nM; IC50 (BaF3 [6]): 3130 nM; IC50 (BaF3 [7]): 163 nM
4 | CCN1CCN(c2cnc(Nc3cc4c(cn3)ncc(=O)n4-c3ccc(N)cc3)cc2C)CC1 | 102 | 51 | 31 | 230 | 
5 | Cc1cc(Nc2cc3c(cn2)ncc(=O)n3-c2ccc(N)cc2)ncc1N1CCC(O)CC1 | 193 | 156 |  |  | 
6 | CC(=O)N1CCN(c2cnc(Nc3cc4c(cn3)ncc(=O)n4-c3ccc(N)cc3)cc2C)CC1 | 166 | 123 |  |  | 
7 | Cc1cc(Nc2cc3c(cn2)ncc(=O)n3-c2ccc(N)cc2)ncc1N1CCOCC1 | > 10 | 11700 |  |  | 
8 | CN1CCN(c2ccc(Nc3ccc4ncc(=O)n(-c5ccc(N)cc5)c4n3)nc2)CC1 | 2540 | 6590 |  |  | 

Now from value to compound, other results behind:

Row | IC50 [1] [nM] | IC50 [2] [nM] | Structure (SMILES) | IC50 (MV4-11) [nM] | IC50 (MOLM-13) [nM] | also measured
9 | 2720 | 2440 | CC(=O)Nc1ccc(-n2c(=O)cnc3cnc(Nc4ccc(N5CCN(C)CC5)cc4)cc32)cc1 |  |  | 
10 | 939 | 582 | CC(=O)Nc1ccc(-n2c(=O)cnc3cnc(Nc4ccc(N5CCN(C)CC5)cn4)cc32)cc1 |  |  | 
11 | 1040 | 811 | CN1CCN(c2ccc(Nc3cc4c(cn3)ncc(=O)n4-c3ccc(CN)cc3)nc2)CC1 |  |  | 
12 | 599 | 653 | CN1CCN(c2ccc(Nc3cc4c(cn3)ncc(=O)n4-c3ccc(N)cc3)nc2)CC1 |  |  | 
